Measured values taken from ChEMBL document CHEMBL1152576, “E-Combretastatin and E-resveratrol structural modifications: antimicrobial and cancer cell growth inhibitory beta-E-nitrostyrenes” (Bioorg Med Chem, 2009).
Converted amounts (≈) assume the structure as drawn. The source made the active and inactive calls. The calls are words filed in the database; no cut-off is given here.

Legend:
Staphylococcus aureus [1] = test: Antimicrobial activity against Staphylococcus aureus ATCC 29213 after 24 hrs by broth microdilution susceptibility assay; format: functional; conditions: ATCC 29213, 24 h
Cryptococcus neoformans [2] = test: Antifungal activity against Cryptococcus neoformans ATCC 90112 after 72 hrs by broth microdilution susceptibility assay; format: functional; conditions: ATCC 90112, 72 h
SF-268 = test: Cytotoxicity against human SF268 cells after 48 hrs by sulforhodamine B assay; format: functional; conditions: SF-268, 48 h
Cryptococcus neoformans [3] = test: Antimicrobial activity against Cryptococcus neoformans ATCC 90112 assessed clear zone in inhibition per disk by CLSI disk diffusion susceptibility assay; format: functional
[4] = system: Stenotrophomonas maltophilia; test: Antimicrobial activity against Stenotrophomonas maltophilia ATCC 13637 after 24 hrs by broth microdilution susceptibility assay; format: functional; conditions: ATCC 13637, 24 h
Streptococcus pneumoniae [5] = test: Antimicrobial activity against Streptococcus pneumoniae ATCC 6303 by broth microdilution susceptibility assay; format: functional
Staphylococcus aureus [6] = test: Antimicrobial activity against Staphylococcus aureus ATCC 29213 by broth microdilution susceptibility assay; format: functional
NCI-H460 = test: Cytotoxicity against human NCI-H460 cells after 48 hrs by sulforhodamine B assay; format: functional; conditions: NCI-H460, 48 h
MCF7 = test: Cytotoxicity against human MCF7 cells after 48 hrs by sulforhodamine B assay; format: functional; conditions: MCF7, 48 h
Staphylococcus aureus [7] = test: Antimicrobial activity against Staphylococcus aureus ATCC 29213 assessed clear zone in inhibition per disk by CLSI disk diffusion susceptibility assay; format: functional
Cryptococcus neoformans [8] = test: Antifungal activity against Cryptococcus neoformans ATCC 90112 after 48 hrs by broth microdilution susceptibility assay; format: functional; conditions: ATCC 90112, 48 h
P388 = test: Cytotoxicity against mouse P388 cells after 48 hrs by sulforhodamine B assay; format: functional; conditions: P388, 48 h, read-out: ED50 (the source's name)
Enterococcus faecalis [9] = test: Antimicrobial activity against Enterococcus faecalis ATCC 29212 assessed clear zone in inhibition per disk by CLSI disk diffusion susceptibility assay; format: functional
KM-20L2 = test: Cytotoxicity against human KM20L2 cells after 48 hrs by sulforhodamine B assay; format: functional; conditions: KM-20L2, 48 h
[10] = Inhibition of tubulin polymerization
Neisseria gonorrhoeae [11] = test: Antimicrobial activity against Neisseria gonorrhoeae ATCC 49226 assessed clear zone of inhibition measured per disk by CLSI disk diffusion susceptibility assay; format: functional
Enterobacter cloacae [12] = test: Antimicrobial activity against Enterobacter cloacae ATCC 13047 assessed clear zone in inhibition per disk by CLSI disk diffusion susceptibility assay; format: functional
Neisseria gonorrhoeae [13] = test: Antimicrobial activity against Neisseria gonorrhoeae ATCC 49226 after 24 hrs by broth microdilution susceptibility assay; format: functional; conditions: ATCC 49226, 24 h
Neisseria gonorrhoeae [14] = test: Antimicrobial activity against Neisseria gonorrhoeae ATCC 49226 by broth microdilution susceptibility assay; format: functional
Streptococcus pneumoniae [15] = test: Antimicrobial activity against Streptococcus pneumoniae ATCC 6303 after 24 hrs by broth microdilution susceptibility assay; format: functional; conditions: ATCC 6303, 24 h
Candida albicans [16] = test: Antifungal activity against Candida albicans ATCC 90028 after 24 hrs by broth microdilution susceptibility assay; format: functional; conditions: ATCC 90028, 24 h
SK-MEL-5 = test: Cytotoxicity against human SK-MEL-5 cells after 48 hrs by sulforhodamine B assay; format: functional
Streptococcus pneumoniae [17] = test: Antimicrobial activity against Streptococcus pneumoniae ATCC 6303 assessed clear zone in inhibition per disk by CLSI disk diffusion susceptibility assay; format: functional
Escherichia coli [18] = test: Antimicrobial activity against Escherichia coli ATCC 25922 by broth microdilution susceptibility assay; format: functional
Enterococcus faecalis [19] = test: Antimicrobial activity against Enterococcus faecalis ATCC 29212 after 24 hrs by broth microdilution susceptibility assay; format: functional; conditions: ATCC 29212, 24 h
[20] = system: Stenotrophomonas maltophilia; test: Antimicrobial activity against Stenotrophomonas maltophilia ATCC 13637 by broth microdilution susceptibility assay; format: functional
Micrococcus luteus [21] = test: Antimicrobial activity against Micrococcus luteus Presque Isle 456 after 24 hrs by broth microdilution susceptibility assay; format: functional; conditions: Presque Isle 456, 24 h
Enterobacter cloacae [22] = test: Antimicrobial activity against Enterobacter cloacae ATCC 13047 by broth microdilution susceptibility assay; format: functional
Escherichia coli [23] = test: Antimicrobial activity against Escherichia coli ATCC 25922 assessed clear zone in inhibition per disk by CLSI disk diffusion susceptibility assay; format: functional
Enterococcus faecalis [24] = test: Antimicrobial activity against Enterococcus faecalis ATCC 29212 by broth microdilution susceptibility assay; format: functional
[25] = system: Stenotrophomonas maltophilia; test: Antimicrobial activity against Stenotrophomonas maltophilia ATCC 13637 assessed clear zone in inhibition per disk by CLSI disk diffusion susceptibility assay; format: functional
Candida albicans [26] = test: Antifungal activity against Candida albicans ATCC 90028 after 48 hrs by broth microdilution susceptibility assay; format: functional; conditions: ATCC 90028, 48 h
DU-145 = test: Cytotoxicity against human DU145 cells after 48 hrs by sulforhodamine B assay; format: functional; conditions: DU-145, 48 h
OVCAR-3 = test: Cytotoxicity against human OVCAR-3 cells after 48 hrs by sulforhodamine B assay; format: functional
Micrococcus luteus [27] = test: Antimicrobial activity against Micrococcus luteus Presque Isle 456 by broth microdilution susceptibility assay; format: functional
BXPC-3 = test: Cytotoxicity against human BxPC3 cells after 48 hrs by sulforhodamine B assay; format: functional; conditions: BXPC-3, 48 h
SF-295 = test: Cytotoxicity against human SF295 cells after 48 hrs by sulforhodamine B assay; format: functional
Candida albicans [28] = test: Antimicrobial activity against Candida albicans ATCC 90028 assessed clear zone in inhibition per disk by CLSI disk diffusion susceptibility assay; format: functional
A498 = test: Cytotoxicity against human A498 cells after 48 hrs by sulforhodamine B assay; format: functional
Micrococcus luteus [29] = test: Antimicrobial activity against Micrococcus luteus Presque Isle 456 assessed clear zone in inhibition per disk by CLSI disk diffusion susceptibility assay; format: functional

Row | Structure (SMILES) | MIC (Cryptococcus neoformans [2]) [µg/mL] | GI50 (SF-268) [µg/mL] | MIC (Cryptococcus neoformans [3]) [µg] | MIC (Streptococcus pneumoniae [5]) [µg/mL] | MIC (Staphylococcus aureus [6]) [µg/mL] | GI50 (NCI-H460) [µg/mL] | GI50 (MCF7) [µg/mL] | MIC (Staphylococcus aureus [7]) [µg] | MFC (Cryptococcus neoformans [8]) [µg/mL] | EC50 (P388) [µg/mL] | MIC (Enterococcus faecalis [9]) [µg] | GI50 (KM-20L2) [µg/mL] | IC50 [10] [µM] | MIC (Neisseria gonorrhoeae [11]) [µg] | MIC (Enterobacter cloacae [12]) [µg] | MBC (Neisseria gonorrhoeae [13]) [µg/mL] | MIC (Neisseria gonorrhoeae [14]) [µg/mL] | MBC (Streptococcus pneumoniae [15]) [µg/mL] | MFC (Candida albicans [16]) [µg/mL] | GI50 (SK-MEL-5) | also measured
1 | O=[N+]([O-])/C=C/c1c[nH]c2ccccc12 | 16 (≈ 85 µM) | 1.9 (≈ 10.1 µM) | 6.25 | 64 (≈ 340 µM) | 64 (≈ 340 µM) | 1.6 (≈ 8.5 µM) | 0.4 (≈ 2.13 µM) | >100 | 32 (≈ 170 µM) | 3.7 (≈ 19.7 µM) | >100 | 1.4 (≈ 7.44 µM) | 15 | 3.12 | >100 | 8 (≈ 42.5 µM) | 8 (≈ 42.5 µM) | > 64 | 64 (≈ 340 µM) | inactive | MBC (Staphylococcus aureus [1]): > 64 µg/mL; MBC [4]: > 64 µg/mL; MIC (Streptococcus pneumoniae [17]): 12.5 µg; MIC (Escherichia coli [18]): > 64 µg/mL; MBC (Enterococcus faecalis [19]): > 64 µg/mL; MIC [20]: 64 µg/mL (≈ 340 µM); MBC (Micrococcus luteus [21]): > 64 µg/mL; MIC (Enterobacter cloacae [22]): > 64 µg/mL; MIC (Escherichia coli [23]): 25 µg; MIC (Enterococcus faecalis [24]): 64 µg/mL (≈ 340 µM); MIC [25]: 25 µg; MIC (Candida albicans [26]): 32 µg/mL (≈ 170 µM); GI50 (DU-145): 1.3 µg/mL (≈ 6.91 µM); GI50 (OVCAR-3): inactive; MIC (Micrococcus luteus [27]): 64 µg/mL (≈ 340 µM); GI50 (BXPC-3): 1.4 µg/mL (≈ 7.44 µM); GI50 (SF-295): inactive; MIC (Candida albicans [28]): 12.5 µg; GI50 (A498): inactive; MIC (Micrococcus luteus [29]): 50 µg
2 | O=[N+]([O-])/C=C/c1ccccc1O | 8 (≈ 48.4 µM) | 1.2 (≈ 7.27 µM) | 0.78 | 32 (≈ 194 µM) | > 64 | 0.95 (≈ 5.75 µM) | 0.47 (≈ 2.85 µM) | 25 | 32 (≈ 194 µM) | 3.5 (≈ 21.2 µM) | 50 | 1.6 (≈ 9.69 µM) | 4.4 | <0.78 | 25 | 2 (≈ 12.1 µM) | 2 (≈ 12.1 µM) | > 64 | 32 (≈ 194 µM) | inactive | MIC (Streptococcus pneumoniae [17]): 1.56 µg; MIC (Escherichia coli [18]): 64 µg/mL (≈ 388 µM); MIC [20]: 32 µg/mL (≈ 194 µM); MIC (Enterobacter cloacae [22]): > 64 µg/mL; MIC (Escherichia coli [23]): 25 µg; MIC (Enterococcus faecalis [24]): > 64 µg/mL; MIC [25]: 12.5 µg; MIC (Candida albicans [26]): 16 µg/mL (≈ 96.9 µM); GI50 (DU-145): 1 µg/mL (≈ 6.06 µM); GI50 (OVCAR-3): inactive; MIC (Micrococcus luteus [27]): > 64 µg/mL; GI50 (BXPC-3): 1.1 µg/mL (≈ 6.66 µM); GI50 (SF-295): inactive; MIC (Candida albicans [28]): 1.56 µg; GI50 (A498): inactive; MIC (Micrococcus luteus [29]): 25 µg
